Measurements reported in EP0998946A1, “Non-porphyrin compound for use as a diagnosticum and/or pharmaceutical” (K.U. LEUVEN RESEARCH & DEVELOPMENT, priority 1998, dated 2000).

Key:
[1] = test system: Reperfused hepatic infarction in rats; assay: MRI contrast enhancement, reperfused hepatic infarction in rats; assay type: in vivo, Wistar rats
[2] = test system: Acute myocardial infarction; assay: MRI contrast enhancement, reperfused myocardial infarction in rabbits; assay type: in vivo, New Zealand rabbits; conditions: rabbit heart, 18 hours after IV injection at 0.05 mmol/kg, T1-w spin echo
[3] = test system: rats; assay: Acute lethal toxicity (LD50) in rats; conditions: 5.0 mmol/kg
[4] = test system: Acute myocardial infarction; assay: MRI contrast enhancement, acute reperfused myocardial infarction in dogs; assay type: in vivo, Mongrel dogs; conditions: dog
[5] = test system: mice; assay: Acute lethal toxicity (LD50) in mice
[6] = test system: reperfused hepatic infarction; assay: Scintigraphic imaging and infarction to normal tissue radioactivity ratio; assay type: in vivo, rat; conditions: 74 MBq
Protocol: Two effective and reproducible animal models have been induced and used in the in vivo assessment of newly synthesized agents. • 1. Reperfused hepatic infarction in rats: adult Wistar rats weighing about 350 grams were anesthetized with intraperitoneal injection of pentobarbital (Nembutal®, 40 mg/kg, Sanofi Sante Animale, B-1130 Brussels, Belgium). Under laparotomy, reperfused hepatic infarction was induced by temporarily clamping the hilum of the right liver lobes for 3 hours. The abdominal cavity was then closed and the rats were allowed to recover from surgery. • 2. Acute myocardial infarction in rabbits and dogs: under general anesthesia with Nembutal® at 6 mg/kg/h and intubated ventilation, adult New Zealand rabbits of 3 kg or Mongrel dogs of 20 kg underwent open-chest surgery through the seventh intercostal space. The left anterior descending (LAD) or circumflex (Cx) branch of the coronary artery was encircled and occluded with a snare-occluder for 150 minutes and reopened by losing the occluder to induce irreversible reperfused AMI. The thoracic cavity was closed by layers with the free air expelled.
[…] This animal was prepared as described above. Scintigraphic images were acquired during 1 to 5 minutes at regular time intervals up to 24 h after injection, using a Triad-gamma camera equipped with an ultra-high resolution parallel collimator.
After sacrificing the animal, organs were isolated and necrotic and viable liver parts were separated and weighed. Their 99m Tc radioactivity was measured using a sodium iodine scintillation detector coupled to a multichannel analyzer. The activity per gram tissue was a factor of 3.2 higher in necrotic liver tissue as compared to normal liver tissue.
This imaging result has been confirmed by radioactivity counting with a factor of more than 3 between infarcted and normal liver tissues.

[7] = test system: necrotic liver; assay: Biodistribution: tissue Gd content by ICP-AES in rats; conditions: Gadophrin-2 comparison
[8] = rat, 0.05 mmol/kg, T1 weighted spin echo

CNC[C@H](O)[C@@H](O)[C@H](O)[C@H](O)CO.CNC[C@H](O)[C@@H](O)[C@H](O)[C@H](O)CO.O=C([O-])CN(CCN(CC(=O)[O-])CC(=O)O)CCN(CC(=O)[O-])CC(=O)O.[Gd+3] [Gd-DTPA, reference compound]
contrast enhancement of the lesions ([1]; T1 weighted MRI, hepatic and myocardial infarcts, iv 0.05 mmol/kg (Gd-DTPA 0.1 mmol/kg), degree and duration equal to that with Gadophrin-2): only enhances nonspecifically the lesions at the early phase (<2h)

N,N'-Bis(diethylenetriamino penta-acetato)-4,4'-methylene bis(3-hydroxy-2-naphthalene carboxylic hydrazide), Gd-complex, sodium salt [ECIII-60]
enhancement of the transmural infarct [2]: persistently enhanced
signal intensity of infarcted liver versus normal liver ([1]; rat, 0.05 mmol/kg, 60 minutes after injection, T1 weighted spin echo): surpassed that of normal liver
time at which the necrosis-to-normal contrast reached maximum [1, 8]: 24 h
time until the enhancement of the necrosis became homogeneous [1, 8]: within a couple of hours
No. Deaths/No. animals [3]: 4/4
enhancement at the infarcted papillary muscle ([4]; eighteen hours after contrast, 0.05 mmol/kg IV): extremely strong enhancement
signals of blood pool and papillary muscle ([4]; ten minutes after IV injection at 0.05 mmol/kg, T1-w turbo-FLASH): strongly enhanced
No. Deaths/No. animals ([5]; 2.15 mmol/kg): 0/4
No. Deaths/No. animals ([5]; 5.0 mmol/kg): 3/3

N,N'-Bis(diethylenetriamino penta-acetato)-4,4'-methylene bis(3-hydroxy-2-naphthalene carboxylic hydrazide), technetium-99m complex, sodium salt [Example 3]
nuclear scintigraphy finding ([6]; rat with reperfused right liver lobe infarction, 24 hours after administration): hot spot caused by accumulation tracer in the necrotic liver lobe only
activity per gram tissue, factor necrotic liver tissue versus normal liver tissue ([6]; rat, 99mTc radioactivity of isolated liver parts after sacrifice): 3.2
scintigraphic visualization of the infarcted region ([6]; rat, images acquired 20 h after injection): Clear visualization of the infarcted region
radioactivity counting, factor between infarcted and normal liver tissues ([6]; rat, 24 hours after administration): more than 3

gadolinium mesoporphyrin [Gadophrin-2]
Gadolinium content, proportion necrotic liver to normal liver [7]: one-to-one
